Values quoted from earlier work, collected in patent publication US8188116B2, “Agents for therapy efficacy monitoring and deep tissue imaging” (Vanderbilt University, priority 2002, dated 2012).

System: PBR
Details: in words, background statement

binding affinity for PBR: fentomolar
SMILES: COc1ccc(OC)c(CN(C(C)=O)c2cc(F)ccc2Oc2ccccc2)c1 [DAA1106]
